Assay results taken from the NIST ThermoML archive (doi:10.1021/je500431h).
± gives the expanded uncertainty stated by the source.

Experiment: xn = mol fraction of the nth substance listed
Conditions: 101 kPa, Liquid; for mass density: Pycnometric method; for electrical conductivity: conductivity meter LF 340 and a standard conductivity cell TetraCon

C=CCn1cc[n+](CCOC)c1.O=S(=O)([N-]S(=O)(=O)C(F)(F)F)C(F)(F)F + O=S(=O)([N-]S(=O)(=O)C(F)(F)F)C(F)(F)F.[Li+]
Conditions | electrical conductivity [S/m] | mass density [kg/m3] | viscosity [mPa·s]
308 K, x2 = 0.176 | – | 1480.1 ± 2.4 | 56.2 ± 2.4
308 K, x2 = 0.2508 | – | 1505.3 ± 2.3 | 72.2 ± 3.5
308 K, x2 = 0.3254 | – | 1525.3 ± 2.5 | 116.4 ± 8
308.2 K, x2 = 0.176 | 0.3 ± 0.018 | – | –
308.2 K, x2 = 0.4001 | 0.0856 ± 0.0051 | – | –
308.7 K, x2 = 0 | 0.546 ± 0.033 | – | –
308.7 K, x2 = 0.2508 | 0.228 ± 0.014 | – | –
308.8 K, x2 = 0.3254 | 0.16 ± 0.0096 | – | –
308.9 K, x2 = 0.1007 | 0.425 ± 0.026 | – | –
309 K, x2 = 0 | – | 1437 ± 2.2 | 23.7 ± 1
309 K, x2 = 0.1007 | – | 1459.7 ± 2.3 | 38 ± 1.7
309.2 K, x2 = 0.4001 | – | – | 221.6 ± 22
309.24 K, x2 = 0.4001 | – | 1551.1 ± 2.5 | –
313 K, x2 = 0.176 | – | 1475.4 ± 2.3 | 44.4 ± 2
313 K, x2 = 0.2508 | – | 1500.4 ± 2.4 | 57.1 ± 2.4
313 K, x2 = 0.3254 | – | 1520.3 ± 2.4 | 89.4 ± 4.9
313.3 K, x2 = 0 | 0.627 ± 0.038 | – | –
313.4 K, x2 = 0.4001 | 0.113 ± 0.0068 | – | –
313.5 K, x2 = 0.3254 | 0.2 ± 0.012 | – | –
313.9 K, x2 = 0.176 | 0.372 ± 0.022 | – | –
314 K, x2 = 0 | – | 1432.3 ± 2.2 | 20.3 ± 0.9
314 K, x2 = 0.4001 | – | 1546.3 ± 2.5 | 168.3 ± 14
314.4 K, x2 = 0.1007 | 0.514 ± 0.031 | – | –
314.4 K, x2 = 0.2508 | 0.284 ± 0.017 | – | –
315 K, x2 = 0.1007 | – | 1453.9 ± 2.2 | 27.9 ± 1.2
317 K, x2 = 0 | – | 1429.6 ± 2.2 | 17.8 ± 0.8
317 K, x2 = 0.2508 | – | 1496.4 ± 2.4 | 47.8 ± 2.1
317 K, x2 = 0.3254 | – | 1516.3 ± 2.4 | 75.1 ± 3.7
317.9 K, x2 = 0.2508 | 0.327 ± 0.02 | – | –
318 K, x2 = 0.176 | – | 1470.7 ± 2.3 | 35.8 ± 1.6
318 K, x2 = 0.4001 | – | 1542.3 ± 2.5 | 138.5 ± 10
318.1 K, x2 = 0 | 0.72 ± 0.043 | – | –
318.1 K, x2 = 0.4001 | 0.141 ± 0.0085 | – | –
319 K, x2 = 0.3254 | 0.248 ± 0.015 | – | –
319.2 K, x2 = 0.1007 | 0.596 ± 0.036 | – | –
319.5 K, x2 = 0.1007 | – | 1449.6 ± 2.2 | 22.8 ± 1
319.6 K, x2 = 0.176 | 0.453 ± 0.027 | – | –
322.4 K, x2 = 0.176 | 0.493 ± 0.03 | – | –
323 K, x2 = 0.176 | – | 1466 ± 2.3 | 29.6 ± 1.3
323 K, x2 = 0.3254 | – | 1510.4 ± 2.4 | 56.8 ± 2.4
323.3 K, x2 = 0 | 0.828 ± 0.05 | – | –
323.5 K, x2 = 0 | – | 1423.5 ± 2.2 | 14.6 ± 0.6
323.9 K, x2 = 0.3254 | 0.3 ± 0.018 | – | –
324 K, x2 = 0.2508 | – | 1489.5 ± 2.4 | 37.4 ± 1.6
324 K, x2 = 0.4001 | – | 1536.2 ± 2.5 | 100.9 ± 6.1
324.1 K, x2 = 0.4001 | 0.183 ± 0.011 | – | –
324.4 K, x2 = 0.1007 | 0.694 ± 0.042 | – | –
324.6 K, x2 = 0.2508 | 0.41 ± 0.025 | – | –
325.2 K, x2 = 0.1007 | – | 1444.2 ± 2.2 | 19.6 ± 0.9
327 K, x2 = 0.3254 | – | 1506.5 ± 2.4 | 49 ± 2.1
327.2 K, x2 = 0.1007 | – | 1442.3 ± 2.2 | 17.7 ± 0.8
327.2 K, x2 = 0.176 | – | 1462 ± 2.3 | 25.4 ± 1.1
327.5 K, x2 = 0.4001 | 0.214 ± 0.013 | – | –
327.9 K, x2 = 0 | 0.935 ± 0.056 | – | –
328 K, x2 = 0 | – | 1419.4 ± 2.2 | 13.1 ± 0.6
328 K, x2 = 0.2508 | – | 1485.6 ± 2.3 | 32.3 ± 1.4
328 K, x2 = 0.4001 | – | 1532.2 ± 2.5 | 82.1 ± 4.3
328.5 K, x2 = 0.2508 | 0.467 ± 0.028 | – | –
328.7 K, x2 = 0.176 | 0.588 ± 0.035 | – | –
328.8 K, x2 = 0.3254 | 0.353 ± 0.021 | – | –
328.9 K, x2 = 0.1007 | 0.778 ± 0.047 | – | –
332.9 K, x2 = 0 | 1.06 ± 0.063 | – | –
333.1 K, x2 = 0.3254 | 0.405 ± 0.024 | – | –
333.4 K, x2 = 0.2508 | 0.535 ± 0.032 | – | –
334 K, x2 = 0 | – | 1413.9 ± 2.2 | 11.2 ± 0.5
334 K, x2 = 0.1007 | 0.885 ± 0.053 | – | –
334 K, x2 = 0.176 | – | 1455.7 ± 2.3 | 20.4 ± 0.9
334 K, x2 = 0.2508 | – | 1479.8 ± 2.4 | 25.9 ± 1.1
334 K, x2 = 0.3254 | – | 1499.7 ± 2.4 | 37.1 ± 1.6
334 K, x2 = 0.4001 | – | 1526.3 ± 2.5 | 63.2 ± 2.8
334.2 K, x2 = 0.1007 | – | 1435.7 ± 2.2 | 15.3 ± 0.7
334.3 K, x2 = 0.4001 | 0.275 ± 0.017 | – | –
334.5 K, x2 = 0.176 | 0.691 ± 0.041 | – | –
337 K, x2 = 0.3254 | – | 1496.9 ± 2.4 | 32 ± 1.4
337.4 K, x2 = 0.2508 | 0.6 ± 0.036 | – | –
337.6 K, x2 = 0 | 1.18 ± 0.071 | – | –
338 K, x2 = 0.176 | – | 1452.1 ± 2.3 | 18.2 ± 0.8
338 K, x2 = 0.2508 | – | 1475.9 ± 2.3 | 22.9 ± 1
338.1 K, x2 = 0.1007 | – | 1432 ± 2.2 | 12.9 ± 0.6
338.5 K, x2 = 0 | – | 1409.9 ± 2.2 | 10 ± 0.4
338.5 K, x2 = 0.3254 | 0.474 ± 0.028 | – | –
338.9 K, x2 = 0.176 | 0.76 ± 0.046 | – | –
339 K, x2 = 0.1007 | 0.986 ± 0.059 | – | –
339 K, x2 = 0.4001 | – | 1521.4 ± 2.5 | 54.2 ± 2.2
339.3 K, x2 = 0.4001 | 0.323 ± 0.019 | – | –
343 K, x2 = 0 | 1.33 ± 0.08 | – | –
343 K, x2 = 0.3254 | – | 1491.1 ± 2.4 | 27.3 ± 1.2
343.2 K, x2 = 0.1007 | – | 1427.3 ± 2.2 | 11.4 ± 0.5
343.3 K, x2 = 0.3254 | 0.539 ± 0.032 | – | –
343.5 K, x2 = 0.2508 | 0.698 ± 0.042 | – | –
343.8 K, x2 = 0.176 | 0.858 ± 0.051 | – | –
344 K, x2 = 0 | – | 1404.9 ± 2.2 | 8.8 ± 0.4
344 K, x2 = 0.176 | – | 1446.6 ± 2.3 | 15.4 ± 0.7
344 K, x2 = 0.4001 | – | 1516.5 ± 2.5 | 44.8 ± 2
344.4 K, x2 = 0.4001 | 0.385 ± 0.023 | – | –
344.5 K, x2 = 0.1007 | 1.11 ± 0.066 | – | –
345 K, x2 = 0.2508 | – | 1469.2 ± 2.3 | 19.2 ± 0.8
347 K, x2 = 0.3254 | – | 1487.3 ± 2.4 | 24 ± 1
348 K, x2 = 0 | – | 1401.3 ± 2.2 | 8.2 ± 0.4
348.1 K, x2 = 0 | 1.48 ± 0.089 | – | –
348.2 K, x2 = 0.2508 | 0.784 ± 0.047 | – | –
348.3 K, x2 = 0.1007 | 1.19 ± 0.072 | – | –
348.5 K, x2 = 0.3254 | 0.62 ± 0.037 | – | –
348.6 K, x2 = 0.176 | 0.954 ± 0.057 | – | –
348.7 K, x2 = 0.4001 | 0.436 ± 0.026 | – | –
349 K, x2 = 0.1007 | – | 1421.9 ± 2.2 | 10.3 ± 0.5
349 K, x2 = 0.176 | – | 1442 ± 2.3 | 13.7 ± 0.6
349 K, x2 = 0.2508 | – | 1465.4 ± 2.3 | 17.1 ± 0.8
349 K, x2 = 0.4001 | – | 1511.6 ± 2.5 | 38 ± 1.7
352 K, x2 = 0 | 1.6 ± 0.096 | – | –
352.5 K, x2 = 0.2508 | 0.858 ± 0.051 | – | –
353.3 K, x2 = 0.3254 | 0.694 ± 0.042 | – | –
353.5 K, x2 = 0.4001 | 0.498 ± 0.03 | – | –
354.2 K, x2 = 0 | – | 1395.8 ± 2.2 | 7 ± 0.3
354.5 K, x2 = 0.1007 | – | 1416.9 ± 2.2 | 9.5 ± 0.4
354.9 K, x2 = 0.1007 | 1.35 ± 0.081 | – | –
354.9 K, x2 = 0.176 | 1.09 ± 0.065 | – | –
355 K, x2 = 0.176 | – | 1436.6 ± 2.2 | 11.9 ± 0.5
355 K, x2 = 0.2508 | – | 1459.8 ± 2.4 | 14.6 ± 0.6
355 K, x2 = 0.4001 | – | 1505.8 ± 2.5 | 31.7 ± 1.4
356 K, x2 = 0.3254 | – | 1478.8 ± 2.4 | 18.9 ± 0.8
